Eleven molecules from ChEMBL document CHEMBL1145302, “Synthesis and antibacterial activity of C6-carbazate ketolides” (2006) can be followed below.

Common to all, as to type: functional
Experiment [1] deals with Staphylococcus aureus. Nature of the experiment: Antibacterial activity against erythromycin-susceptible Staphylococcus aureus Smith OC4172 in presence of 50% mouse serum.
Experiment [2] deals with Staphylococcus haemolyticus. In words: Antibacterial activity against erythromycin resistant Staphylococcus haemolyticus OC3882 containing erm(C).
Experiment [3] has as its system Staphylococcus aureus. Nature of the experiment: Antibacterial activity against Staphylococcus aureus Smith infected in sc dosed Swiss Webster mouse septicemia model.
The test system of experiment [4] is Staphylococcus aureus. In words: Antibacterial activity against Staphylococcus aureus Smith infected in orally dosed Swiss Webster mouse septicemia model. The settings on record: po.
Experiment [5] relates to Streptococcus pneumoniae. In words: Antibacterial activity against erythromycin-resistant Streptococcus pneumoniae OC4051 containing erm(B).
Experiment [6] deals with Haemophilus influenzae. Nature of the experiment: Antibacterial activity against telithromycin-susceptible Haemophilus influenzae ATCC 49766.
The subject of experiment [7] is Streptococcus pneumoniae. Nature of the experiment: Antibacterial activity against erythromycin-susceptible Streptococcus pneumoniae OC9132.
Experiment [8] has as its system Staphylococcus aureus. In words: Antibacterial activity against erythromycin-susceptible Staphylococcus aureus Smith OC4172.
For experiment [9], the system named is Streptococcus pneumoniae. Nature of the experiment: Antibacterial activity against erythromycin-resistant Streptococcus pneumoniae OC4421 containing mef(A).

Structures are written as SMILES. In brackets after ≈: the same amount, converted by molar mass.

As for `CC[C@H]1OC(=O)[C@H](C)C(=O)[C@H](C)[C@@H](O[C@@H]2O[C@H](C)C[C@H](N(C)C)[C@H]2O)[C@](C)(OC(=O)NN(C)CCc2ccc(-c3ncccn3)cc2)C[C@@H](C)C(=O)[C@H](C)[C@H]2NC(=O)O[C@@]21C`, the MIC came out at 0.5 µg/mL in [1]; 0.5 µg/mL (≈ 0.586 µM) in experiment [2]; 0.06 µg/mL (≈ 0.0703 µM) in experiment [5]; 4 µg/mL (≈ 4.69 µM) in [6]; 0.03 µg/mL (≈ 0.0352 µM) in experiment [7]; 0.25 µg/mL (≈ 0.293 µM) in [8]. In [9], this molecule came in with an MIC of 0.25 µg/mL (≈ 0.293 µM). Besides, the 50% effective dose (ED50) in experiment [3] is 3.3 mg/kg; in [4], greater than 20 mg/kg.

As to `CC[C@H]1OC(=O)[C@H](C)C(=O)[C@H](C)[C@@H](O[C@@H]2O[C@H](C)C[C@H](N(C)C)[C@H]2O)[C@](C)(OC(=O)NNCCc2cccc(-c3ncccn3)c2)C[C@@H](C)C(=O)[C@H](C)[C@H]2NC(=O)O[C@@]21C`, the MIC in [1] amounted to 1 µg/mL; in experiment [2], 0.25 µg/mL (≈ 0.298 µM); in experiment [5], 0.06 µg/mL (≈ 0.0715 µM); in experiment [6], 2 µg/mL (≈ 2.38 µM); in experiment [7], 0.03 µg/mL (≈ 0.0358 µM); in [8], 0.25 µg/mL (≈ 0.298 µM). Also, the MIC in experiment [9] stood at 0.25 µg/mL (≈ 0.298 µM). Moreover, the ED50 was 4.3 mg/kg in experiment [3] and greater than 20 mg/kg in experiment [4].

Consider `CC[C@H]1OC(=O)[C@H](C)C(=O)[C@H](C)[C@@H](O[C@@H]2O[C@H](C)C[C@H](N(C)C)[C@H]2O)[C@](C)(OC(=O)NN(C)CCc2ccc(-c3ncco3)cc2)C[C@@H](C)C(=O)[C@H](C)[C@H]2NC(=O)O[C@@]21C`, for which the MIC is 0.5 µg/mL in experiment [1]; 0.5 µg/mL (≈ 0.594 µM) in experiment [2]; 0.06 µg/mL (≈ 0.0713 µM) in experiment [5]; 2 µg/mL (≈ 2.38 µM) in [6]; 0.03 µg/mL (≈ 0.0356 µM) in experiment [7]; 0.25 µg/mL (≈ 0.297 µM) in experiment [8]. In experiment [9], this molecule came in with an MIC of 0.12 µg/mL (≈ 0.143 µM).

With `CC[C@H]1OC(=O)[C@H](C)C(=O)[C@H](C)[C@@H](O[C@@H]2O[C@H](C)C[C@H](N(C)C)[C@H]2O)[C@](C)(OC(=O)NN(C)CCc2ccc(-c3ncccn3)s2)C[C@@H](C)C(=O)[C@H](C)[C@H]2NC(=O)O[C@@]21C`, the MIC is 0.5 µg/mL in experiment [1]; 0.25 µg/mL (≈ 0.291 µM) in experiment [2]; 0.06 µg/mL (≈ 0.0698 µM) in experiment [5]; 2 µg/mL (≈ 2.33 µM) in experiment [6]; 0.03 µg/mL (≈ 0.0349 µM) in experiment [7]; 0.25 µg/mL (≈ 0.291 µM) in [8]. Besides, the MIC in [9] stood at 0.12 µg/mL (≈ 0.14 µM). For the same molecule, the results for the ED50 in experiment [3] and in [4] were 4.8 mg/kg and greater than 20 mg/kg, respectively.

On to `CC[C@H]1OC(=O)[C@H](C)C(=O)[C@H](C)[C@@H](O[C@@H]2O[C@H](C)C[C@H](N(C)C)[C@H]2O)[C@](C)(OC(=O)N(C)NCCc2ccc(-c3cnccn3)cc2)C[C@@H](C)C(=O)[C@H](C)[C@H]2NC(=O)O[C@@]21C`, for which the MIC in experiment [1] came out at 2 µg/mL; in experiment [2], 2 µg/mL (≈ 2.34 µM); in experiment [5], 0.12 µg/mL (≈ 0.141 µM); in experiment [6], 8 µg/mL (≈ 9.38 µM); in experiment [7], 0.06 µg/mL (≈ 0.0703 µM); in experiment [8], 0.5 µg/mL (≈ 0.586 µM). The molecule further had an MIC in experiment [9] of 0.5 µg/mL (≈ 0.586 µM).

As to `CC[C@H]1OC(=O)[C@H](C)C(=O)[C@H](C)[C@@H](O[C@@H]2O[C@H](C)C[C@H](N(C)C)[C@H]2O)[C@](C)(OC(=O)NN(C)CCc2ccc(-c3ncccn3)cc2F)C[C@@H](C)C(=O)[C@H](C)[C@H]2NC(=O)O[C@@]21C`, the MIC in [1] turned out to be 1 µg/mL; in experiment [2], 0.5 µg/mL (≈ 0.574 µM); in experiment [5] it was 0.06 µg/mL (≈ 0.0689 µM); in experiment [6], 4 µg/mL (≈ 4.59 µM); in [7], 0.06 µg/mL (≈ 0.0689 µM); in [8], 0.5 µg/mL (≈ 0.574 µM). In addition, the MIC in [9] worked out at 0.25 µg/mL (≈ 0.287 µM). For the same molecule, the ED50 in experiment [3] was 2.3 mg/kg; in experiment [4], greater than 20 mg/kg.

Turning to `CC[C@H]1OC(=O)[C@H](C)C(=O)[C@H](C)[C@@H](O[C@@H]2O[C@H](C)C[C@H](N(C)C)[C@H]2O)[C@](C)(OC(=O)NN(CC)CCc2ccc(-c3ncccn3)cc2)C[C@@H](C)C(=O)[C@H](C)[C@H]2NC(=O)O[C@@]21C`, the MIC stood at 2 µg/mL in experiment [1]; 0.5 µg/mL (≈ 0.577 µM) in experiment [2]; 0.12 µg/mL (≈ 0.138 µM) in [5]; 8 µg/mL (≈ 9.23 µM) in experiment [6]; 0.12 µg/mL (≈ 0.138 µM) in experiment [7]; 0.25 µg/mL (≈ 0.288 µM) in experiment [8]. In experiment [9], this molecule displayed an MIC of 0.25 µg/mL (≈ 0.288 µM).

Turning to `CC[C@H]1OC(=O)[C@H](C)C(=O)[C@H](C)[C@@H](O[C@@H]2O[C@H](C)C[C@H](N(C)C)[C@H]2O)[C@](C)(OC(=O)NN(C)C/C=C/c2ccc(-c3ncccn3)cc2)C[C@@H](C)C(=O)[C@H](C)[C@H]2NC(=O)O[C@@]21C`, the MIC came out at 0.5 µg/mL in [1]; 0.5 µg/mL (≈ 0.578 µM) in experiment [2]; 0.25 µg/mL (≈ 0.289 µM) in experiment [5]; 8 µg/mL (≈ 9.25 µM) in experiment [6]; 0.03 µg/mL (≈ 0.0347 µM) in experiment [7]; 0.25 µg/mL (≈ 0.289 µM) in experiment [8]. In experiment [9], this molecule came in with an MIC of 0.5 µg/mL (≈ 0.578 µM).

As to `CC[C@H]1OC(=O)[C@H](C)C(=O)[C@H](C)[C@@H](O[C@@H]2O[C@H](C)C[C@H](N(C)C)[C@H]2O)[C@](C)(OC(=O)N(C)N(C)CCc2ccc(-c3cnccn3)cc2)C[C@@H](C)C(=O)[C@H](C)[C@H]2NC(=O)O[C@@]21C`, the MIC is 4 µg/mL in experiment [1]; 8 µg/mL (≈ 9.23 µM) in experiment [2]; 0.5 µg/mL (≈ 0.577 µM) in experiment [5]; 16 µg/mL (≈ 18.5 µM) in [6]; 0.06 µg/mL (≈ 0.0692 µM) in experiment [7]; 2 µg/mL (≈ 2.31 µM) in experiment [8]. Besides, the MIC in experiment [9] amounted to 0.5 µg/mL (≈ 0.577 µM).

As to `CC[C@H]1OC(=O)[C@H](C)C(=O)[C@H](C)[C@@H](O[C@@H]2O[C@H](C)C[C@H](N(C)C)[C@H]2O)[C@](C)(OC)C[C@@H](C)C(=O)[C@H](C)[C@H]2N(CCCCn3cnc(-c4cccnc4)c3)C(=O)O[C@]12C` [TELITHROMYCIN], the MIC in experiment [1] was 0.5 µg/mL; in experiment [2], 0.25 µg/mL (≈ 0.308 µM); in experiment [5], 0.06 µg/mL (≈ 0.0739 µM); in experiment [6] it was 1 µg/mL (≈ 1.23 µM); in experiment [7], 0.06 µg/mL (≈ 0.0739 µM); in experiment [8] it was 0.25 µg/mL (≈ 0.308 µM). This molecule also came in with an MIC in experiment [9] of 0.12 µg/mL (≈ 0.148 µM). The 50% effective dose (ED50) in experiment [3] was 4.3 mg/kg; in [4], greater than 20 mg/kg.

As to `CC[C@H]1OC(=O)[C@H](C)C(=O)[C@H](C)[C@@H](O[C@@H]2O[C@H](C)C[C@H](N(C)C)[C@H]2O)[C@](C)(OC(=O)NNCCc2ccc(-c3cnccn3)cc2)C[C@@H](C)C(=O)[C@H](C)[C@H]2NC(=O)O[C@@]21C`, the MIC in experiment [1] was 0.5 µg/mL; in experiment [2], 0.25 µg/mL (≈ 0.298 µM); in experiment [5] it was 0.06 µg/mL (≈ 0.0715 µM); in experiment [6], 2 µg/mL (≈ 2.38 µM); in experiment [7], 0.03 µg/mL (≈ 0.0358 µM); in experiment [8], 0.25 µg/mL (≈ 0.298 µM). This molecule yielded an MIC in experiment [9] of 0.25 µg/mL (≈ 0.298 µM).
